In general, IC50 refers to the concentration that gives 50% inhibition. Low readings indicate higher potency, high ones lower potency.

The values that follow come from article PMC6957347 (Pharmacology Research & Perspectives, 2020).

The subject of one assay is rheumatoid arthritis. The note with it: 0.5-5 mg, twice a day, PO ref 27; cited from earlier work.
The test system of a further assay is PI3Kβ/α. Briefly: pAKT in PC3 cell line. Format: cell-based.
The test system of assay [1] is human B and T cell cocultures. As to conditions: BioMAP T:B cocultures ref 10; cited from earlier work.

Regarding `C[C@H](Nc1ncnc2nc[nH]c12)c1cc2cccc(Cl)c2c(=O)n1-c1ccccc1` [duvelisib], the “efficacy in rheumatoid arthritis clinical trials” value with rheumatoid arthritis is “efficacy could not be demonstrated”. In the assay with PI3Kβ/α, the IC50 was found to be […].
For the molecule `[O-][n+]1cccc(-c2nc3c(Cl)cccc3cc2[C@@H](Nc2ncnc3cccnc23)C(F)(F)F)c1` [seletalisib], the IgG production entry in assay [1] is recorded as “attenuation of IgG production”.
